# According to patent US7842808B2, “Anti-migraine spirocycles” (Bristol-Myers Squibb Company, priority 2002, dated 2010):
# Biological target: T1, CGRP receptor (SK-N-MC cell membranes) (Homo sapiens, UniProt O60894+Q16602)
# T1 construct: endogenous in cells; host or cells: SK-N-MC cells (membrane homogenate)
# Test: CGRP Binding Assay ([125I]-CGRP radioligand binding, SK-N-MC homogenate)
# Conditions: not given
# Procedure: Tissue Culture. SK-N-MC cells were grown at 37° C. in 5% CO2 as a monolayer in medium consisting of MEM with Earle's salts and L-glutamine (Gibco) supplemented with 10% fetal bovine serum (Gibco).
# Cell Pellets. […] The cells were transferred from plates to polypropylene tubes (16×100 mm) and homogenized using a polytron. Homogenates were centrifuged at 32,000×g for 30 min. The pellets were resuspended in cold hypotonic lysis buffer with 0.1% mammalian protease inhibitor cocktail (Sigma) and assayed for protein concentration. The SK-N-MC homogenate was then aliquoted and stored at −80° C. until needed.
# Radioligand Binding Assay. The compounds of invention were solubilized and carried through serial dilutions using 100% DMSO. Aliquots from the compound serial dilutions were further diluted 25 fold into assay buffer (50 mM Tris-Cl pH 7.5, 5 mM MgCl2, 0.005% Triton X-100) and transferred (volume 50 μl) into 96 well assay plates. […] SK-N-MC pellets were thawed, diluted in assay buffer with fresh 0.1% mammalian protease inhibitor cocktail (Sigma), and homogenized again. SK-N-MC homogenate (5 μg/well) was added in a volume of 100 μl. The assay plates were then incubated at room temperature for 2 h. Assays were stopped by addition of excess cold wash buffer (20 mM Tris-Cl pH 7.5, 0.1% BSA) immediately followed by filtration over glass fiber filters (Whatman GF/B) previously soaked in 0.5% PEI. Non-specific binding was defined with 1 μM beta-CGRP. Protein bound radioactivity was determined using a gamma or scintillation counter.
# T1 sequence (Q16602 23-461): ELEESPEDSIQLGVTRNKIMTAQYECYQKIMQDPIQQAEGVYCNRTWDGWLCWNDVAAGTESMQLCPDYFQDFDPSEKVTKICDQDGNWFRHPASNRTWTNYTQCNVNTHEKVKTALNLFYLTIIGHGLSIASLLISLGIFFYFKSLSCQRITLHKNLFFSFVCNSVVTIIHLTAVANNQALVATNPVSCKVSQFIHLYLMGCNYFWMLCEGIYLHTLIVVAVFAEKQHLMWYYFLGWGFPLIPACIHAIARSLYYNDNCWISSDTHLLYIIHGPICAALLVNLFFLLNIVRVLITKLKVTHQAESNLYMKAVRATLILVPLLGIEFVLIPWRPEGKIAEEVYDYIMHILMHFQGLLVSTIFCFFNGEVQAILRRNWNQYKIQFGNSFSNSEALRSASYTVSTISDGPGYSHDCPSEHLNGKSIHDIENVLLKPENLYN
# T1 sequence (O60894 27-148): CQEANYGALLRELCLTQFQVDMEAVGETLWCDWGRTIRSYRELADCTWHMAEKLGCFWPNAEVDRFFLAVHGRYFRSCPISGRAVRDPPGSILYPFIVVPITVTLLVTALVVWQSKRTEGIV
row,Compound,IC50 [nM]
1,"O=C1Nc2ccccc2C2(CCN(C(=O)CC(Cc3ccc4[nH]ncc4c3)C(=O)N3CCC4(CC3)OCCO4)CC2)O1 (racemic) [Example 80, (±)-1-(1,4-Dioxa-8-aza-spiro[4.5]dec-8-yl)-2-(1H-indazol-5-ylmethyl)-4-[1′,2′-dihydro-2′-oxospiro-[4H-3′,1-benzoxazine-4,4′-piperidinyl]-butane-1,4-dione]",100 to 1000

# Same assay, conditions: displacement of [125I]-CGRP, SK-N-MC homogenate; read-out: CGRP binding IC50
row,Compound,IC50 [nM]
1,"Cc1nc(N[C@@H](CC(=O)N2CCC(N3Cc4ccccc4NC3=O)CC2)C(=O)N2CCC(N3CCCCC3)CC2)nc(N)c1N [Example 91, (L)-1-[1,4′]Bipiperidinyl-1′-yl-2-(4,5-diamino-6-methyl-pyrimidin-2-ylamino)-4-[4-(2-oxo-1,4-dihydro-2H-quinazolin-3-yl)-piperidin-1-yl]-butane-1,4-dione]",100 to 1000
2,O=C(N[C@@H](CC(=O)N1CCC(N2Cc3ccccc3NC2=O)CC1)C(=O)N1CCC(N2CCCCC2)CC1)c1cc(F)cc(F)c1 [Example 122],100 to 1000
3,CC(=O)N[C@@H](CC(=O)N1CCC(N2Cc3ccccc3NC2=O)CC1)C(=O)N1CCC(N2CCCCC2)CC1 [Example 120],100 to 1000
4,COC(=O)c1cccc(NC(=O)N[C@@H](CC(=O)N2CCC(N3Cc4ccccc4NC3=O)CC2)C(=O)N2CCC(N3CCCCC3)CC2)c1 [Example 196],10 to 100
5,Cc1ccccc1NC(=O)N[C@@H](CC(=O)N1CCC(N2Cc3ccccc3NC2=O)CC1)C(=O)N1CCC(N2CCCCC2)CC1 [Example 141],100 to 1000
6,O=C(Cc1ccc(Cl)cc1)N[C@@H](CC(=O)N1CCC(N2Cc3ccccc3NC2=O)CC1)C(=O)N1CCC(N2CCCCC2)CC1 [Example 127],100 to 1000
7,O=C(Nc1ccc(F)cc1F)N[C@@H](CC(=O)N1CCC(N2Cc3ccccc3NC2=O)CC1)C(=O)N1CCC(N2CCCCC2)CC1 [Example 156],100 to 1000
8,O=C(N[C@@H](CC(=O)N1CCC(N2Cc3ccccc3NC2=O)CC1)C(=O)N1CCC(N2CCCCC2)CC1)c1cccc([N+](=O)[O-])c1 [Example 113],100 to 1000
9,O=C(Nc1cc(F)ccc1F)N[C@@H](CC(=O)N1CCC(N2Cc3ccccc3NC2=O)CC1)C(=O)N1CCC(N2CCCCC2)CC1 [Example 184],10 to 100
10,"O=C(C[C@H](Nc1ccc2[nH]ncc2c1)C(=O)N1CCC(N2CCCCC2)CC1)N1CCC(N2Cc3ccccc3NC2=O)CC1 (racemic) [Example 201, (±)-1-[1,4′]Bipiperidinyl-1′-yl-2-(1H-indazol-5-ylamino)-4-[4-(2-oxo-1,4-dihydro-2H-quinazolin-3-yl)-piperidin-1-yl]-butane-1,4-dione]",100 to 1000
11,"COc1ncc(CC(NC(=O)N2CCC(N3Cc4ccccc4NC3=O)CC2)C(=O)N2CCC(N3CCCCC3)CC2)cn1 (racemic) [Example 58, (±)-4-(2-Oxo-1,4-dihydro-2H-quinazolin-3-yl)-piperidine-1-carboxylic acid[2-[1,4′]bipiperidinyl-1′-yl-1-(2-methoxy-pyrimidin-5-ylmethyl)-2-oxo-ethyl]-amide]",> 1000
12,COc1ccc(NC(=O)N[C@@H](CC(=O)N2CCC(N3Cc4ccccc4NC3=O)CC2)C(=O)N2CCC(N3CCCCC3)CC2)c(OC)c1 [Example 155],100 to 1000
13,Cc1cc(Br)ccc1NC(=O)N[C@@H](CC(=O)N1CCC(N2Cc3ccccc3NC2=O)CC1)C(=O)N1CCC(N2CCCCC2)CC1 [Example 194],100 to 1000
14,COc1ccc(OC(=O)N[C@@H](CC(=O)N2CCC(N3Cc4ccccc4NC3=O)CC2)C(=O)N2CCC(N3CCCCC3)CC2)cc1 [Example 134],100 to 1000
15,"O=C(C[C@H](NCc1ccccn1)C(=O)N1CCC(N2CCCCC2)CC1)N1CCC(N2Cc3ccccc3NC2=O)CC1 [Example 93, (L)-1-[1,4′]Bipiperidinyl-1′-yl-2-((2′-pyridyl)-methyl-amino)-4-[4-(2-oxo-1,4-dihydro-2H-quinazolin-3-yl)-piperidin-1-yl]-butane-1,4-dione]",100 to 1000
16,"Cc1cc(CC(NC(=O)N2CCC(N3Cc4ccccc4NC3=O)CC2)C(=O)O[C@@H](C)c2ccncc2)cc2cn[nH]c12 (stereo partly drawn) [Example 41f, 3-(7-Methyl-1H-indazol-5-yl)-2-{[4-(2-oxo-1,4-dihydro-2H-quinazolin-3-yl)-piperidine-1-carbonyl]-amino}-propionic acid(S)-1-pyridin-4-yl-ethyl ester]",10 to 100
17,O=C(Nc1ccc(Oc2ccccc2)cc1)N[C@@H](CC(=O)N1CCC(N2Cc3ccccc3NC2=O)CC1)C(=O)N1CCC(N2CCCCC2)CC1 [Example 146],10 to 100
18,"Cc1cccc(CN[C@@H](CC(=O)N2CCC(N3Cc4ccccc4NC3=O)CC2)C(=O)N2CCC(N3CCCCC3)CC2)c1 [Example 95, (L)-1-[1,4′]Bipiperidinyl-1′-yl-2-((3′-methyl-phenyll)-methyl-amino)-4-[4-(2-oxo-1,4-dihydro-2H-quinazolin-3-yl)-piperidin-1-yl]-butane-1,4-dione]",100 to 1000
19,O=C(NC(Cc1ccc2[nH]ncc2c1)C(=O)N1CCN(Cc2ccc[nH]2)CC1)N1CCC(N2Cc3ccccc3NC2=O)CC1 (centres unmarked) [Example 40g],> 1000

row,Compound,IC50 [nM]
1,CCCNC(=O)N[C@@H](CC(=O)N1CCC(N2Cc3ccccc3NC2=O)CC1)C(=O)N1CCC(N2CCCCC2)CC1 [Example 183],100 to 1000
2,O=C(NCCc1cccs1)N[C@@H](CC(=O)N1CCC(N2Cc3ccccc3NC2=O)CC1)C(=O)N1CCC(N2CCCCC2)CC1 [Example 169],100 to 1000
3,"Cc1cc(CC(NC(=O)N2CCC3(CC2)OC(=O)Nc2ccccc23)C(=O)NC2C3CC4CC(C3)CC2C4)cc2cn[nH]c12 (racemic) [Example 28, (±)-[1-(2-adamantyl-carbamoyl)-2-(7-methyl-1H-indazol-5-yl)-ethyl]-1′,2′-dihydro-2′-oxospiro-[4H-3′,1-benzoxazine-4,4′-piperidine]-1-carboxamide]",100 to 1000
4,COc1ccc(OC)c(NC(=O)N[C@@H](CC(=O)N2CCC(N3Cc4ccccc4NC3=O)CC2)C(=O)N2CCC(N3CCCCC3)CC2)c1 [Example 174],100 to 1000
5,O=C(N[C@@H](CC(=O)N1CCC(N2Cc3ccccc3NC2=O)CC1)C(=O)N1CCC(N2CCCCC2)CC1)c1cc(Cl)cc(Cl)c1 [Example 108],100 to 1000
6,"COC(=O)C(CC(=O)N1CCC2(CC1)OC(=O)Nc1ccccc12)Cc1cc(C)c2[nH]ncc2c1 (racemic) [Example 66, (±)-2-(7-Methyl-1H-indazol-5-ylmethyl)-4-oxo-4-[1′,2′-dihydro-2′-oxospiro-[4H-3′,1-benzoxazine-4,4′-piperidinyl]-butyric acid methyl ester]",100 to 1000
7,O=C(COc1ccc(Cl)cc1)N[C@@H](CC(=O)N1CCC(N2Cc3ccccc3NC2=O)CC1)C(=O)N1CCC(N2CCCCC2)CC1 [Example 112],100 to 1000
8,O=C(Nc1cc(Cl)cc(Cl)c1)N[C@@H](CC(=O)N1CCC(N2Cc3ccccc3NC2=O)CC1)C(=O)N1CCC(N2CCCCC2)CC1 [Example 159],10 to 100
9,O=C(Nc1cccc(F)c1)N[C@@H](CC(=O)N1CCC(N2Cc3ccccc3NC2=O)CC1)C(=O)N1CCC(N2CCCCC2)CC1 [Example 177],10 to 100
10,"O=C(N[C@@H](CC(=O)N1CCC(N2Cc3ccccc3NC2=O)CC1)C(=O)N1CCC(N2CCCCC2)CC1)c1ccc(O)cc1 [Example 100, (L)-N-{1-([1,4′]Bipiperidinyl-1′-carbonyl)-3-oxo-3-[4-(2-oxo-1,4-dihydro-2H-quinazolin-3-yl)-piperidin-1-yl]-propyl}-4-hydroxy-benzamide]",100 to 1000
11,O=C(N[C@@H](CC(=O)N1CCC(N2Cc3ccccc3NC2=O)CC1)C(=O)N1CCC(N2CCCCC2)CC1)c1cccc(F)c1 [Example 105],100 to 1000
12,"Cc1nc(N[C@@H](CC(=O)N2CCC(N3Cc4ccccc4NC3=O)CC2)C(=O)N2CCC(N3CCCCC3)CC2)nc(N)c1[N+](=O)[O-] [Example 90, (L)-2-(4-Amino-6-methyl-5-nitro-pyrimidin-2-ylamino)-1-[1,4′]bipiperidinyl-1′-yl-4-[4-(2-oxo-1,4-dihydro-2H-quinazolin-3-yl)-piperidin-1-yl]-butane-1,4-dione]",10 to 100
13,O=C(NC(Cc1ccc2[nH]ncc2c1)C(=O)N1CCN(C/C=C/c2ccccc2)CC1)N1CCC(N2Cc3ccccc3NC2=O)CC1 (centres unmarked) [Example 40j],> 1000
14,O=C(Cc1cccs1)N[C@@H](CC(=O)N1CCC(N2Cc3ccccc3NC2=O)CC1)C(=O)N1CCC(N2CCCCC2)CC1 [Example 117],100 to 1000
15,O=C(N[C@@H](CC(=O)N1CCC(N2Cc3ccccc3NC2=O)CC1)C(=O)N1CCC(N2CCCCC2)CC1)c1ccccc1 [Example 110],100 to 1000
16,O=C(Nc1ccc(Cl)c(C(F)(F)F)c1)N[C@@H](CC(=O)N1CCC(N2Cc3ccccc3NC2=O)CC1)C(=O)N1CCC(N2CCCCC2)CC1 [Example 152],100 to 1000
17,"O=C(N[C@H](Cc1ccc2nn[nH]c2c1)C(=O)N1CCC(N2CCCCC2)CC1)N1CCC(N2Cc3ccccc3NC2=O)CC1 [Example 49, (R)-4-(2-Oxo-1,4-dihydro-2H-quinazolin-3-yl)-piperidine-1-carboxylic acid[1-(1H-benzotriazol-5-ylmethyl)-2-[1,4′]bipiperidinyl-1′-yl-2-oxo-ethyl]-amide]",< 10
18,COc1cc(NC(=O)N[C@@H](CC(=O)N2CCC(N3Cc4ccccc4NC3=O)CC2)C(=O)N2CCC(N3CCCCC3)CC2)cc(OC)c1 [Example 165],100 to 1000
